We go through two compounds from patent US8445462B2, “Composition for the treatment of osteoarthritis” (Bioiberica, S.A., priority 2007, dated 2013).

Where a name gives a salt, the structure may show the parent alone.

In the assay the test system is experimental osteoarthritis induced by partial medial meniscectomy in guinea pigs. Description: Experimental osteoarthritis induced by partial medial meniscectomy in guinea pigs: chondroprotective activity and modified Mankin histological evaluation. It is filed as in vivo, Dunkin Hartley (DH) guinea pigs. The note with it: CS 95 mg/kg/day, Man 60 mg/kg/day; for average chondroprotective activity (GAGs, cartilage structure, chondrocyte proliferation): oral gavage once a day for 70 days, blank control group 100%, operated control group 0%; for global histopathological score (modified Mankin) with respect to the operated group, result in words: oral, 70 days. An excerpt: The objective was to evaluate the chondroprotective activity (cartilage protective activity) of a composition formed by a mixture of chondroitin sulphate and mannosamine hydrochloride as sole active components, in a model of experimental osteoarthritis induced by partial medial meniscectomy in guinea pigs (A. M. Bendele, Progressive chronic osteoarthritis in femorotibial joints of partial medial meniscectomized guinea pigs, Vet. Pathol. 24, 444-448 (1987)), comparing said activity with the chondroprotective activity of chondroitin sulphate and of mannosamine hydrochloride.
Dunkin Hartley (DH) guinea pigs with a weight comprised between 580 and 699 g were used. A partial medial meniscectomy was performed in a part of them.
The following treatment groups were formed: blank control group (corresponding to healthy guinea pigs), operated control group (corresponding to guinea pigs in which a partial medial meniscectomy was performed to induce an experimental osteoarthritis in them), operated guinea pigs to which the sodium salt of chondroitin sulphate (95 mg/kg of body weight/day) was administered, operated guinea pigs to which mannosamine hydrochloride (60 mg/kg of body weight/day) was administered, operated guinea pigs to which a mixture of sodium salt of chondroitin sulphate (95 mg/kg of body weight/day) and mannosamine hydrochloride (60 mg/kg of body weight/day) was administered.
On the day after the surgery, the daily administration of the corresponding oral treatments by means of gastric gavage was started, the carrier used being water for injection. The blank control and operated control groups only received the carrier (water for injection) by oral route.
The treatments were administered once a day for 70 days (ten weeks). The body weight and the clinical signs of the animals were recorded twice a day. No remarkable clinical signs were observed throughout the treatment period.
On the day after the administration had ended, the animals were sacrificed by anaesthetic overdose (pentobarbital sodium) and the femorotibial joint of the right rear leg was removed for its fixing in 10% formol for at least 48 hours. Then, they were decalcified, included in paraffin, the necessary sections were obtained and the stainings with Hematoxylin-Eosin and Safranin-O-Fast Green (or Toluidine Blue) were performed for their histological evaluation, which was performed by a pathologist in a blind manner.
The severity of the osteoarthritic injuries was evaluated by means of the modified histologic/histochemical scale of Mankin et al. (H J. Mankin and L. Lipiello Biochemical and metabolic abnormalities in articular cartilage from osteoarthritic human hips. J. Bone Joint Surg.-Amer. 53-A, 523-537 (1971)). […]

Take `N[C@@H]1C(O)O[C@H](CO)[C@@H](O)[C@@H]1O` (stereo partly drawn) [mannosamine hydrochloride, 2-amino-2-deoxy-D-mannose]: the “average chondroprotective activity (GAGs, cartilage structure, chondrocyte proliferation)” value was −21% and the “global histopathological score (modified Mankin) with respect to the operated group, result in words” value is on record as “no statistically significant differences”.

As to chondroitin sulphate, the “average chondroprotective activity (GAGs, cartilage structure, chondrocyte proliferation)” value was found to be 12% and the “global histopathological score (modified Mankin) with respect to the operated group, result in words” value was “improvement with respect to the operated group, but without statistical significance”.
